According to patent US12240853B2, “Compounds useful in HIV therapy” (GlaxoSmithKline Intellectual Property (No.2) Limited, priority 2019, dated 2025):

Key:
[1] = Example 18 dog PK studies (SC and IM); format: in vivo, beagle dogs; conditions: beagle dog, single SC or IM injection, 5 mg parent/kg
Excerpt: Example 18 referenced herein was made in accordance with Synthesis B. Six male beagle dogs (+1 spare) were selected from the Testing Facility's colony of non-naïve animals. The animals were assigned to the study based on acceptable health as determined by a Testing Facility veterinarian. Six animals were selected and placed into two groups of three animals each. Fasting of the animals before or after dosing was not required.
On Day 1 each animal in Group 1 received a single intrascapular subcutaneous injection of prepared test article at a target dose level of 5 mg parent/kg in 2% P404/2% PEG3350/PBS (dose concentration 97.36 mg/mL prodrug) and at a dose volume of 0.1 mL/kg. Each animal in Group 2 received a single intramuscular injection of prepared test article in a hind quarter (quadriceps) at a target dose level of 5 mg parent/kg in 2% P404/2% PEG3350/PBS (dose concentration 97.36 mg/mL prodrug) and at a dose volume of 0.1 mL/kg. The animals were manually restrained for dosing and were not sedated. The dose sites were clipped of hair and wiped with alcohol before dosing. […]
The PK plasma samples were analyzed approximately every two weeks by the Testing Facility to determine the concentration of Example 18 (prodrug) and parent using an LC-MS/MS Research Grade Assay (RGA-1) with sensitivity to 0.1 ng/mL. […]

[2] = Example 18 rat PK studies (SC and IM); format: in vivo, Wistar Han rats; conditions: single SC or IM injection, 20 mg parent/kg
Excerpt: Example 18 referenced herein was made in accordance with Synthesis B. A total of seven naïve male Wistar Han rats, 250-275 g, were received from the supplier equipped with a surgically-implanted jugular vein catheter (JVC) to facilitate blood sample collection during the first several days of the study. Following an acclimation period, the animals were assigned to the study based on acceptable health as determined by a staff veterinarian and catheter patency. Six animals were placed into two groups of 3 rats per group. Fasting of the animals before or after dosing was not required.
On Day 1 each animal in Group 1 received a single intrascapular subcutaneous injection of prepared test article at a target dose level of 20 mg parent/kg and at a dose volume of 0.49 mL/kg. Each animal in Group 2 received a single intramuscular injection of prepared test article into a thigh muscle at a target dose level of 20 mg parent/kg and at a dose volume of 0.49 mL/kg. The animals were manually restrained for dosing and were not sedated. […]
Interim blood samples for PK (Groups 1A and 2A) were collected from the jugular vein catheter or by venipuncture of a jugular vein if the catheter was not patent. […] The PK plasma samples were analyzed every 1-2 weeks by the Testing Facility to determine the concentration of prodrug and parent using an LC-MS/MS Research Grade Assay (RGA-1) with sensitivity to 0.1 ng/mL. […]

C#C[C@]1(COC(=O)CCCCCCCCC)O[C@@H](n2cnc3c(N)nc(F)nc32)C[C@@H]1OC(=O)CCCCCCCCC [Example 18, (2R,3S,5R)-5-(6-amino-2-fluoro-9H-purin-9-yl)-2-((decanoyloxy)methyl)-2-ethynyltetrahydrofuran-3-yl Decanoate]
Clinical observations and dose site reactions [1]: All animals appeared normal at the time of each observation and no dose site reactions were observed
Clinical observations and dose site reactions [2]: All animals appeared normal at the time of each observation and no dose site reactions were observed
